The source of these data is US12662489B2 (Sitryx Therapeutics Limited, priority 2023, dated 2026).

Test [1] deals with T1, human α4β2 neuronal nicotinic receptor (Homo sapiens, UniProt P17787+P43681).
T1 construct: host or cells: SH-SY5Y cells (membrane homogenates)
In words: α4β2 neuronal nicotinic receptor assay (agonist radioligand, [3H]cytisine). Conditions: transfected SH-SY5Y cell membranes, 0.6 nM [3H]cytisine, band. Format: binding. The protocol: Cell membrane homogenates (30 μg protein) were incubated for 120 min at 4° C. with 0.6 nM [3H]cytisine in the absence or presence of the test compound in a buffer containing 50 mM Tris-HCl (pH 7.4), 120 mM NaCl, 5 mM KCl, 2.5 mM CaCl2 and 1 mM MgCl2. Nonspecific binding was determined in the presence of 10 μM nicotine bitartrate. Following incubation, the samples were filtered rapidly under vacuum through glass fiber filters (GF/B, Packard) presoaked with 0.3% PEI and rinsed several times with ice-cold 50 mM Tris-HCl using a 96-sample cell harvester (Unifilter, Packard).
The filters were dried then counted for radioactivity in a scintillation counter (Topcount, Packard) using a scintillation cocktail (Microscint 0, Packard). The results were expressed as a percent inhibition of the control radioligand specific binding. The standard reference compound was nicotine bitartrate.
A number of example compounds of formula (I) were tested to evaluate their affinity for the human α4β2 neuronal nicotinic receptor expressed in transfected SH-SY5Y cells, determined in a radioligand binding assay.

The target of test [2] is T2, MTHFD2 recombinant human enzyme (Homo sapiens, UniProt P13995).
T2 sequence (P13995 36-350): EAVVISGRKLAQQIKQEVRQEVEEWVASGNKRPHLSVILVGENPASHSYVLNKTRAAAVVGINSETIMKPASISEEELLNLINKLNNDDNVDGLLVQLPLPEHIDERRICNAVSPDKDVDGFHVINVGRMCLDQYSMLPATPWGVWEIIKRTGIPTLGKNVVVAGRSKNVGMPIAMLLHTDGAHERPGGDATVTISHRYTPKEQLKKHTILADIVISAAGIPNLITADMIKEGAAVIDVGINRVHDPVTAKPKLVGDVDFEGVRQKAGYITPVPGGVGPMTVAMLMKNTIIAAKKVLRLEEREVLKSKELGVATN
In words: MTHFD2 inhibition assay (NAD(P)H-Glo luminescence). The following applies: for MTHFD1/MTHFD2 IC50 ratio: selectivity of MTHFD2 inhibition over MTHFD1, band.

Test [3] addresses T3, MTHFD1 recombinant human enzyme (Homo sapiens, UniProt P11586).
T3 sequence (P11586 2-291 limits assumed): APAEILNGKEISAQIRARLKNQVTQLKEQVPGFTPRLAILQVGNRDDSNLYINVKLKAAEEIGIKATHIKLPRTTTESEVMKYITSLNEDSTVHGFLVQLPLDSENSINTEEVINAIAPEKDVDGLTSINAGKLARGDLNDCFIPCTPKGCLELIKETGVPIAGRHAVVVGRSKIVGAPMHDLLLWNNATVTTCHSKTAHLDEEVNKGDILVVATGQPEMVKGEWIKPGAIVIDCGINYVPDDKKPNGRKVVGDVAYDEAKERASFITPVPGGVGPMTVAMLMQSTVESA
In words: MTHFD1 inhibition assay (NAD(P)H-Glo luminescence). The following applies: MTHFD1 IC50, recombinant human enzyme 200 nM, NADP, band.

The subject of another test is human CD4+ T cells. In words: Human CD4+ T-cell proliferation assay (CFSE, CD3/28 beads). The following applies: read-out: Proliferation IC50.

T1 sequence (P43681 29-627 limits assumed): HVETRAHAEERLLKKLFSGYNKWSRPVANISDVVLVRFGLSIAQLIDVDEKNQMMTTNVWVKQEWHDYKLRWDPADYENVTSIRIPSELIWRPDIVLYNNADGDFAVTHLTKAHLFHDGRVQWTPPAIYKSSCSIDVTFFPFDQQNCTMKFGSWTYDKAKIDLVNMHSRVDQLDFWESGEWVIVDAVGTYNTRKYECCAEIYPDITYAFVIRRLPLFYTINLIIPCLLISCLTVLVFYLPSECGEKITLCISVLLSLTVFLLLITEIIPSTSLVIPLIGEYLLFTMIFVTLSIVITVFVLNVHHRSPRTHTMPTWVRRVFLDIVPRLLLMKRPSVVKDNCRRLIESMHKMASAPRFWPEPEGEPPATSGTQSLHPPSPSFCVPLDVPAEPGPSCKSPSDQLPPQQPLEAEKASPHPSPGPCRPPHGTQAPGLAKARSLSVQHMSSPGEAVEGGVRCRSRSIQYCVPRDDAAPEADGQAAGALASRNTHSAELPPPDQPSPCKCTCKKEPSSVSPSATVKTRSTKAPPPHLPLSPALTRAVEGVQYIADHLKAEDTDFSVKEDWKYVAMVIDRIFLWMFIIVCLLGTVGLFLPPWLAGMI
T1 sequence (P17787 26-502): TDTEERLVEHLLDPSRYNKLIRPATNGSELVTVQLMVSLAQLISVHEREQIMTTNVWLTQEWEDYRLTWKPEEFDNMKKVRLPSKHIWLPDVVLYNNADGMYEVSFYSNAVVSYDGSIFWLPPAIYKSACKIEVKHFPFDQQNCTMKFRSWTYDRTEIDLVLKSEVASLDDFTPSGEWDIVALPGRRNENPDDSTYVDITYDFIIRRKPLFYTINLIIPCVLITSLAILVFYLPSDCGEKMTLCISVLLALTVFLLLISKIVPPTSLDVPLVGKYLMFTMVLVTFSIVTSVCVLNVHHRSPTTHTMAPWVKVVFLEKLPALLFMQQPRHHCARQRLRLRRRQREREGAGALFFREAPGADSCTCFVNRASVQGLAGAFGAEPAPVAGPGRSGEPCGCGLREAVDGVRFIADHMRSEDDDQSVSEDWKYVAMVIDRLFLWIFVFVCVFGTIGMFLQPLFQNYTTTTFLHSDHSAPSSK

Consider `COC[C@H]1CN(c2cc(C)c3c4c(c(=O)oc3c2C)CN(C(=O)c2ccc(C(=O)NS(=O)(=O)C3(C)CC3)c(OC3CCC3)c2)CC4)CCN1C` [Example 2, (R)-2-cyclobutoxy-4-(8-(3-(methoxymethyl)-4-methylpiperazin-1-yl)-7,10-dimethyl-5-oxo-1,3,4,5-tetrahydro-2H-chromeno[3,4-c]pyridine-3-carbonyl)-N-((1-methylcyclopropyl)sulfonyl)benzamide], for which the figures for the IC50 in test [1], in test [2] and in test [3] were 20000 to 100000 nM, 10 to 100 nM and 100 to 1000 nM, respectively. For the same molecule, in test [2], the “MTHFD1/MTHFD2 IC50 ratio” value is reported as “G (^ 3 to 9.0)”.
The like results for `COC[C@H]1CN(c2ccc3c4c(c(=O)oc3c2C)CN(C(=O)c2ccc(C(=O)NS(=O)(=O)N3CCCC3)c(OC3CCCC3)c2F)CC4)CCN1C` [Example 12, (R)-2-(cyclopentyloxy)-3-fluoro-4-(8-(3-(methoxymethyl)-4-methylpiperazin-1-yl)-7-methyl-5-oxo-1,3,4,5-tetrahydro-2H-chromeno[3,4-c]pyridine-3-carbonyl)-N-(pyrrolidin-1-ylsulfonyl)benzamide] were, in that order, more than 100000 nM, 1 to 10 nM, 1 to 10 nM and “F (<3)”.
Regarding `COC[C@H]1CN(c2cc(Cl)c3c4c(c(=O)oc3c2C)CN(C(=O)c2ccc(C(=O)NS(=O)(=O)N3C5CCC3CC5)c(OC)c2)CC4)CCN1C` [Example 321, (R)-N-((7-azabicyclo[2.2.1]heptan-7-yl)sulfonyl)-4-(10-chloro-8-(3-(methoxymethyl)-4-methylpiperazin-1-yl)-7-methyl-5-oxo-1,3,4,5-tetrahydro-2H-chromeno[3,4-c]pyridine-3-carbonyl)-2-methoxybenzamide], the IC50 in test [2] was 10 to 100 nM; in test [3], 1000 to 5000 nM; with human CD4+ T cells, 30 to 100 nM. In addition, the “MTHFD1/MTHFD2 IC50 ratio” value in test [2] is “J (>30)”.
The like results for `COC[C@H]1CN(c2cc(Cl)c3c4c(c(=O)oc3c2C)CN(C(=O)c2cc(N(C)C)c(C(=O)NS(=O)(=O)N3C5CCC3COC5)cc2F)CC4)CCN1C` [Example 322, N-((3-oxa-8-azabicyclo[3.2. 1]octan-8-yl)sulfonyl)-4-(10-chloro-8-((R)-3-(methoxymethyl)-4-methylpiperazin-1-yl)-7-methyl-5-oxo-1,3,4,5-tetrahydro-2H-chromeno[3,4-c]pyridine-3-carbonyl)-2-(dimethylamino)-5-fluorobenzamide] were, in that order, 1 to 10 nM, 1000 to 5000 nM, 30 to 100 nM and “J (>30)”.
The like results for `COC[C@H]1CN(c2cc(Cl)c3c4c(c(=O)oc3c2C)CN(C(=O)c2cc(OC)c(C(=O)NS(=O)(=O)N3C5CCC3CC5)cc2F)CC4)CCN1C` [Example 324, (R)-N-((7-azabicyclo[2.2.1]heptan-7-yl)sulfonyl)-4-(10-chloro-8-(3-(methoxymethyl)-4-methylpiperazin-1-yl)-7-methyl-5-oxo-1,3,4,5-tetrahydro-2H-chromeno[3,4-c]pyridine-3-carbonyl)-5-fluoro-2-methoxybenzamide] were, in that order, 10 to 100 nM, 100 to 1000 nM, 100 to 1000 nM and “J (>30)”.
The like results for `COC[C@H]1CN(c2cc(Cl)c3c4c(c(=O)oc3c2C)CN(C(=O)c2cc(OC)c(C(=O)NS(=O)(=O)N3CC5CC5C3)cc2F)CC4)CCN1C` (stereo partly drawn) [Example 325, N-((3-azabicyclo[3.1.0]hexan-3-yl)sulfonyl)-4-(10-chloro-8-((R)-3-(methoxymethyl)-4-methylpiperazin-1-yl)-7-methyl-5-oxo-1,3,4,5-tetrahydro-2H-chromeno[3,4-c]pyridine-3-carbonyl)-5-fluoro-2-methoxybenzamide] were, in that order, 1 to 10 nM, 100 to 1000 nM, 100 to 1000 nM and “J (>30)”.
Turning to `[2H]C([2H])([2H])Oc1cc(C(=O)N2CCc3c(c(=O)oc4c(C)c(N5CCN(C)[C@@H](COC)C5)cc(Cl)c34)C2)c(F)cc1C(=O)NS(=O)(=O)N1C2CCC1CC2` [Example 326, (R)-N-((7-azabicyclo[2.2.1]heptan-7-yl)sulfonyl)-4-(10-chloro-8-(3-(methoxymethyl)-4-methylpiperazin-1-yl)-7-methyl-5-oxo-1,3,4,5-tetrahydro-2H-chromeno[3,4-c]pyridine-3-carbonyl)-5-fluoro-2-(methoxy-d3)benzamide], the IC50 in test [2] lay in the range of 1 to 10 nM; in test [3], 1000 to 5000 nM; with human CD4+ T cells, 100 to 1000 nM. In addition, in test [2], the “MTHFD1/MTHFD2 IC50 ratio” value is listed as “J (>30)”.
For the molecule `[2H]C([2H])([2H])Oc1cc(C(=O)N2CCc3c(c(=O)oc4c(C)c(N5CCN(C)[C@@H](COC)C5)cc(Cl)c34)C2)c(F)cc1C(=O)NS(=O)(=O)N1CC2CC2C1` (stereo partly drawn) [Example 327, N-((3-azabicyclo[3.1.0]hexan-3-yl)sulfonyl)-4-(10-chloro-8-((R)-3-(methoxymethyl)-4-methylpiperazin-1-yl)-7-methyl-5-oxo-1,3,4,5-tetrahydro-2H-chromeno[3,4-c]pyridine-3-carbonyl)-5-fluoro-2-(methoxy-d3)benzamide], the IC50 lay in the range of 1 to 10 nM in test [2], 100 to 1000 nM in test [3] and 100 to 1000 nM with human CD4+ T cells. Moreover, the “MTHFD1/MTHFD2 IC50 ratio” value in test [2] is “J (>30)”.
For the molecule `[2H]C([2H])([2H])Oc1cc(C(=O)N2CCc3c(c(=O)oc4c(C)c(N5CCN(C)[C@@H](COC)C5)cc(C)c34)C2)c(Cl)cc1C(=O)NS(=O)(=O)N1CCCC1` [Example 328, (R)-5-chloro-2-(methoxy-d3)-4-(8-(3-(methoxymethyl)-4-methylpiperazin-1-yl)-7,10-dimethyl-5-oxo-1,3,4,5-tetrahydro-2H-chromeno[3,4-c]pyridine-3-carbonyl)-N-(pyrrolidin-1-ylsulfonyl)benzamide], the IC50 in test [2] fell in the range of 10 to 100 nM; in test [3], 1000 to 5000 nM; in the test on human CD4+ T cells, 100 to 1000 nM. Also, in test [2], the “MTHFD1/MTHFD2 IC50 ratio” value is “J (>30)”.
The like results for `COC[C@H]1CN(c2cc(C)c3c4c(c(=O)oc3c2C)CN(C(=O)c2cc(OC)c(C(=O)NS(=O)(=O)N3CCCC3)cc2Cl)CC4)CCN1C` [Example 329, (R)-5-chloro-2-methoxy-4-(8-(3-(methoxymethyl)-4-methylpiperazin-1-yl)-7,10-dimethyl-5-oxo-1,3,4,5-tetrahydro-2H-chromeno[3,4-c]pyridine-3-carbonyl)-N-(pyrrolidin-1-ylsulfonyl)benzamide] were, in that order, 1 to 10 nM, 1000 to 5000 nM, 100 to 1000 nM and “J (>30)”.
The like results for `CCOc1cc(C(=O)N2CCc3c(c(=O)oc4c(C)c(N5CCN(C)[C@@H](COC)C5)cc(C)c34)C2)c(Cl)cc1C(=O)NS(=O)(=O)N1CCCC1` [Example 330, (R)-5-chloro-2-ethoxy-4-(8-(3-(methoxymethyl)-4-methylpiperazin-1-yl)-7,10-dimethyl-5-oxo-1,3,4,5-tetrahydro-2H-chromeno[3,4-c]pyridine-3-carbonyl)-N-(pyrrolidin-1-ylsulfonyl)benzamide] were, in that order, 10 to 100 nM, 100 to 1000 nM, 100 to 1000 nM and “J (>30)”.
In the case of `COC[C@H]1CN(c2cc(C)c3c4c(c(=O)oc3c2C)CN(C(=O)c2cc(OC3CC3)c(C(=O)NS(=O)(=O)N3C5CCC3CC5)cc2F)CC4)CCN1C` [Example 331, (R)-N-((7-azabicyclo[2.2.1]heptan-7-yl)sulfonyl)-2-cyclopropoxy-5-fluoro-4-(8-(3-(methoxymethyl)-4-methylpiperazin-1-yl)-7,10-dimethyl-5-oxo-1,3,4,5-tetrahydro-2H-chromeno[3,4-c]pyridine-3-carbonyl)benzamide], the IC50 in test [2] was 1 to 10 nM; in test [3] it was 100 to 1000 nM; in the test with human CD4+ T cells it was 30 to 100 nM. Besides, the “MTHFD1/MTHFD2 IC50 ratio” value in test [2] is “J (>30)”.
